Assay results: patent US4472304A, “(Amido)N-substituted bleomycins, salts thereof and process for preparation thereof” (Nippon Kayaku Kabushiki Kaisha, priority 1981, dated 1984)
≈ marks a conversion by molar mass, not a printed value.

Key:
[1] = test system: Mycobacterium smegmatis ATCC 607; assay: Antimicrobial activity against Mycobacterium smegmatis ATCC 607 (agar plate-cylinder); assay type: cell-based; conditions: standard bleomycin A2 (copper-free) assumed 1,000 mcg potency/mg
Procedure: (§1) 2. ANT[…] MYC[…] ATCC 607 AND BACILLUS SUBTILIS
(§2) The antimicrobial activity was tested against the captioned test organisms by the method of agar plate-cylinder. The activity was recorded on the assumption that the activity of standard sample of bleomycin A2 (copper-free form) is 1,000 mcg poteney/mg.

Bacillus subtilis = assay: Antimicrobial activity against Bacillus subtilis (agar plate-cylinder); assay type: cell-based; conditions: standard bleomycin A2 (copper-free) assumed 1,000 mcg potency/mg
Procedure: as §1, §2

HeLa S3 cells = assay: Growth inhibitory activity against cultured HeLa S3 cells; assay type: cell-based; conditions: 3 days; for IC50: Homo sapiens, HeLa S3, 72 h, Cu-free, read-out: 50% Growth inhibitory concentration of Cu-free compd. against cultured HeLaS3 cells (ID50)
Procedure: 3. GROWTH INHIBITORY ACTIVITY AGAINST CULTURED HELA S3 CELLS
HeLa S3 cells were inoculated into a medium (MEM with 10% bovine serum) placed in a plastic petri dish. Two days thereafter, a bleomycin was added to the dish. After 3 days of breeding, the number of cells were counted. The percentage growth inhibition was calculated using the following equation:
Percentage inhibition (%)=100×(B-A)/(B-C) where A is the final number of cells after 3 days from the addition of test sample, B is the final number of cells in the control without addition of the test smaple, and C is the number of cells at the time of addition of the test sample.

[2] = biological target: T1, bleomycin-inactivating enzyme (Rattus norvegicus, UniProt P70645); assay: in vitro; conditions: liver extract
T1 sequence (P70645 1-454): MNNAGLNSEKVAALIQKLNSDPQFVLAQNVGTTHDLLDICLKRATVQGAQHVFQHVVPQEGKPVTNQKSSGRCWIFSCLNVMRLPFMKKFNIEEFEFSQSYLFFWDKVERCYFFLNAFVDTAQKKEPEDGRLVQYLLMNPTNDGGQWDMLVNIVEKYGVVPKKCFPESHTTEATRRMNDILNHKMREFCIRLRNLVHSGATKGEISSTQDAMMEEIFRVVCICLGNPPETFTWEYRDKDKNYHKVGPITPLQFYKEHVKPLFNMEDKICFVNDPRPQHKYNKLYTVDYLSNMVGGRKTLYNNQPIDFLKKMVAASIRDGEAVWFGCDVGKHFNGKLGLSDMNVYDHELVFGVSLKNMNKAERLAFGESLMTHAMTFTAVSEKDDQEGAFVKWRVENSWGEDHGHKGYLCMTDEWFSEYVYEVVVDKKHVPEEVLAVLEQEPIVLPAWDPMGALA

[3] = CDF1/SLC male mice, s.c. once a day for 10 days, Behrens-Karber, daily dose
Procedure: From the mortality during the administration period, LD50 (daily dose) was determined by the method of Behrens-Karber.

pulmonary fibrosis = assay: Pulmonary toxicity (pulmonary fibrosis) in mice; conditions: for Incidence: Number of mice with pulmonary fibrosis (%) / Incidence: Number of mice with pulmonary fibrosis / Grade: Total score of pulmonary fibrosis/total number of samples / Grade: Total score of pulmonary fibrosis/total number of samples (%): ICR mice, 5 mg/kg i.p. once a day for 10 days; for Incidence: Number of mice with pulmonary fibrosis (%) / Incidence: Number of mice with pulmonary fibrosis: 5 weeks observation; for Incidence: Number of mice with pulmonary fibrosis: mice with fibrosis/total; for Grade: Total score of pulmonary fibrosis/total number of samples / Grade: Total score of pulmonary fibrosis/total number of samples (%): points 0, 1, 2, 4, 6; for Ratio (by comparison with "Bleomycin Complex"): versus Bleomycin Complex

| Molecule | Antimicrobial potency of Cu-free compound against Mycobacterium smegmatis ATCC 607 [1] | Antimicrobial potency of Cu-free compound against Bacillus subtilis (Bacillus subtilis) | 50% Growth inhibitory concentration of Cu-free compd. against cultured HeLaS3 cells (ID50) (HeLa S3 cells) | IC50 (HeLa S3 cells) | metabolised at 40 min [2] | LD50 during administration period of 10 consecutive days [3] | Incidence: Number of mice with pulmonary fibrosis (%) (pulmonary fibrosis) | Incidence: Number of mice with pulmonary fibrosis (pulmonary fibrosis) | Grade: Total score of pulmonary fibrosis/total number of samples (pulmonary fibrosis) | Grade: Total score of pulmonary fibrosis/total number of samples (%) (pulmonary fibrosis) | Ratio (by comparison with "Bleomycin Complex") (pulmonary fibrosis) |
| --- | --- | --- | --- | --- | --- | --- | --- | --- | --- | --- | --- |
| 3-((S)-1'-phenylethylamino)propylamino-(amido)N--[1,6-dimethyl-heptyl]-BLM [Compound 32] | 39956 mcg potency/mg | 298 mcg potency/mg | 0.83 µg/mL | – | – | – | – | – | – | – | – |
| 4-Guanidinobutylamino-(amido)N--[1',6'-dimethylheptyl]-BLM [Compound 8] | 24880 mcg potency/mg | 950 mcg potency/mg | 0.62 µg/mL | – | – | – | – | – | – | – | – |
| CNC(=O)C(N)CNC(CC(N)=O)c1nc(N)c(C)c(C(=O)NC(C(=O)NC(C)C(O)C(C)C(=O)NC(C(=O)NCCc2nc(-c3nc(C(=O)NCCc4c[nH]cn4)cs3)cs2)C(C)O)C(OC2OC(CO)C(O)C(O)C2OC2OC(CO)C(O)C(OC(N)=O)C2O)c2cnc[nH]2)n1 (stereo not shown) [Compound 1, 2-(4'-Imidazolyl)ethylamino-(amido)N--[methyl]-BLM] | 1447 mcg potency/mg | 654 mcg potency/mg | – | 1.2 µg/mL (≈ 0.845 µM) | 5 to 14% | – | – | – | – | – | – |
| CCNC(=O)C(N)CNC(CC(N)=O)c1nc(N)c(C)c(C(=O)NC(C(=O)NC(C)C(O)C(C)C(=O)NC(C(=O)NCCc2nc(-c3nc(C(=O)NCCc4c[nH]cn4)cs3)cs2)C(C)O)C(OC2OC(CO)C(O)C(O)C2OC2OC(CO)C(O)C(OC(N)=O)C2O)c2cnc[nH]2)n1 (stereo not shown) [Compound 2, 2-(4'-Imidazolyl)ethylamino-(amido)N--[ethyl]-BLM] | 1895 mcg potency/mg | 767 mcg potency/mg | – | 0.98 µg/mL (≈ 0.683 µM) | 15 to 24% | – | – | – | – | – | – |
| Cc1c(N)nc(C(CC(N)=O)NCC(N)C(=O)NCCCNC(C)c2ccccc2)nc1C(=O)NC(C(=O)NC(C)C(O)C(C)C(=O)NC(C(=O)NCCc1nc(-c2nc(C(=O)NCCC[N+](C)(C)CCCN(Cc3ccccc3)Cc3ccccc3)cs2)cs1)C(C)O)C(OC1OC(CO)C(O)C(O)C1OC1OC(CO)C(O)C(OC(N)=O)C1O)c1cnc[nH]1 [Compound 52, 3-{N,N--dimethyl-N--[dibenzylamino)propyl]amino}-propylamino-(amido)N--[3-((S)-1'-phenyl)aminopropyl]-BLM] | 21371 mcg potency/mg | 2372 mcg potency/mg | – | – | – | 13.9 mg/kg/day | 0% | 0/9 | 0/27 | 0% | 0 |
| CCCCCCCCNC(=O)C(N)CNC(CC(N)=O)c1nc(N)c(C)c(C(=O)NC(C(=O)NC(C)C(O)C(C)C(=O)NC(C(=O)NCCc2nc(-c3nc(C(=O)NCCC[N+](C)(C)CCCN(Cc4ccccc4)Cc4ccccc4)cs3)cs2)C(C)O)C(OC2OC(CO)C(O)C(O)C2OC2OC(CO)C(O)C(OC(N)=O)C2O)c2cnc[nH]2)n1 (stereo not shown) [Compound 53, 3-{N,N--dimethyl-N--[3-(dibenzylamino)propyl]amino}-propylamino-(amido)N--[n-octyl]-BLM] | 40703 mcg potency/mg | 595 mcg potency/mg | – | – | – | 15.0 mg/kg/day | 0% | 0/9 | 0/27 | 0% | 0 |
| Cc1c(N)nc(C(CC(N)=O)NCC(N)C(=O)NCCCNC(C)c2ccccc2)nc1C(=O)NC(C(=O)NC(C)C(O)C(C)C(=O)NC(C(=O)NCCc1nc(-c2nc(C(=O)NCCCN(C)CCCNCC3CCCCCCC3)cs2)cs1)C(C)O)C(OC1OC(CO)C(O)C(O)C1OC1OC(CO)C(O)C(OC(N)=O)C1O)c1cnc[nH]1 [Compound 60, 3-{N--methyl-N--[3-(cyclooctylmethyl)aminopropyl]amino}-propylamino-(amido)N--[3-((S)-1'-phenylethylamino)propyl]-BLM] | 54345 mcg potency/mg | 7273 mcg potency/mg | – | – | – | – | 0% | 0/9 | 0/27 | 0% | 0 |
| CCCCCCCCNC(=O)C(N)CNC(CC(N)=O)c1nc(N)c(C)c(C(=O)NC(C(=O)NC(C)C(O)C(C)C(=O)NC(C(=O)NCCc2nc(-c3nc(C(=O)NCCCN(C)CCCNCc4ccc(C#N)cc4)cs3)cs2)C(C)O)C(OC2OC(CO)C(O)C(O)C2OC2OC(CO)C(O)C(OC(N)=O)C2O)c2cnc[nH]2)n1 (stereo not shown) [Compound 62, 3-{N--methyl-N--[3-(p-cyanobenzylamino)propyl]amino}propylamino-(amido)N--[octyl]-BLM] | 49270 mcg potency/mg | 381 mcg potency/mg | – | – | – | – | 0% | 0/9 | 0/27 | 0% | 0 |
| Cc1c(N)nc(C(CC(N)=O)NCC(N)C(=O)NCCCNC(C)c2ccccc2)nc1C(=O)NC(C(=O)NC(C)C(O)C(C)C(=O)NC(C(=O)NCCc1nc(-c2nc(C(=O)NCCCN(C)CCCN(Cc3ccc(OCc4ccccc4)c(OCc4ccccc4)c3)Cc3ccc(OCc4ccccc4)c(OCc4ccccc4)c3)cs2)cs1)C(C)O)C(OC1OC(CO)C(O)C(O)C1OC1OC(CO)C(O)C(OC(N)=O)C1O)c1cnc[nH]1 [Compound 64, 3-{N--methyl-N--[3-bis(m,p-dibenzyloxybenzyl)aminopropyl]amino}-propylamino-(amido)N--[3-((S)-1'-phenylethyl)aminopropyl]-BLM] | 115 mcg potency/mg | 23 mcg potency/mg | – | – | – | > 81.4 mg/kg/day | 0% | 0/9 | 0/27 | 0% | 0 |
| CCCCCCCCNC(=O)C(N)CNC(CC(N)=O)c1nc(N)c(C)c(C(=O)NC(C(=O)NC(C)C(O)C(C)C(=O)NC(C(=O)NCCc2nc(-c3nc(C(=O)NCCCN(C)CCCN(Cc4ccc(OCc5ccccc5)c(OCc5ccccc5)c4)Cc4ccc(OCc5ccccc5)c(OCc5ccccc5)c4)cs3)cs2)C(C)O)C(OC2OC(CO)C(O)C(O)C2OC2OC(CO)C(O)C(OC(N)=O)C2O)c2cnc[nH]2)n1 (stereo not shown) [Compound 65, 3-{N--methyl-N--[3-bis(m,p-dibenzyloxybenzyl)aminopropyl]amino}-propylamino-(amido)N--[n-octyl]-BLM] | 153 mcg potency/mg | 13 mcg potency/mg | – | – | – | > 75.7 mg/kg/day | 0% | 0/9 | 0/27 | 0% | 0 |
| Cc1c(N)nc(C(CC(N)=O)NCC(N)C(N)=O)nc1C(=O)NC(C(=O)NC(C)C(O)C(C)C(=O)NC(C(=O)NCCc1nc(-c2nc(C(=O)NCCCCNC(=N)N)cs2)cs1)C(C)O)C(OC1OC(CO)C(O)C(O)C1OC1OC(CO)C(O)C(OC(N)=O)C1O)c1cnc[nH]1 (stereo not shown) [bleomycin B2, reference compound] | – | – | – | – | 50% | – | – | – | – | – | – |
